Laboratory results from patent US20230080054A1 (ILDONG PHARMACEUTICAL CO., LTD., priority 2021, published 2023).

Target: T1, human ANO6 (Homo sapiens, UniProt Q4KMQ2)
T1 construct: expressed in transfected cells
T1 sequence (Q4KMQ2 1-931 isoform Q4KMQ2-2): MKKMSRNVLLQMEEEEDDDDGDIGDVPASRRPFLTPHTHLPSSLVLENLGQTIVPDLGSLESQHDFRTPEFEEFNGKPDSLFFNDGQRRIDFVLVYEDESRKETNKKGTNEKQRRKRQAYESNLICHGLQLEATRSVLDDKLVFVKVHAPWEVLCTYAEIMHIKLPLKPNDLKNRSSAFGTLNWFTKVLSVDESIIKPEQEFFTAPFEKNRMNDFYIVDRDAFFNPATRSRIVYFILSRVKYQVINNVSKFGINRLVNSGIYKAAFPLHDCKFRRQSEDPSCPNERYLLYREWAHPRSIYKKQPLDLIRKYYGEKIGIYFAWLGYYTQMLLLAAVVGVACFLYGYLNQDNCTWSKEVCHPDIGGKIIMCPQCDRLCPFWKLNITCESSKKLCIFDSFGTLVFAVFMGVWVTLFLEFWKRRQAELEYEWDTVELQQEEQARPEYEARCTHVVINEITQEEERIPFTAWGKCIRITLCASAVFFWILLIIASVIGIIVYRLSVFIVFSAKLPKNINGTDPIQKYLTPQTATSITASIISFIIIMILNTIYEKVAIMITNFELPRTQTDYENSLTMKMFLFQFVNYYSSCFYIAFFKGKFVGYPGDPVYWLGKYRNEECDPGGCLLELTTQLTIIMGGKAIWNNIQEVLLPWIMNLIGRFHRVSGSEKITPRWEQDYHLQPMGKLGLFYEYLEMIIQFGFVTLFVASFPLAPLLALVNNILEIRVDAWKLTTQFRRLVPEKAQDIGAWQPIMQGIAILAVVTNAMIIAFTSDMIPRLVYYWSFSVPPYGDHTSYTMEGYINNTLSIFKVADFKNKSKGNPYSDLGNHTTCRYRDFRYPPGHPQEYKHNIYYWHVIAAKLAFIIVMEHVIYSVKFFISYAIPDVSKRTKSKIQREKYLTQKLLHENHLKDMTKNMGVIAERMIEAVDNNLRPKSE
Test: YFP quenching assay (ANO6 ion channel activity)
Type: cell-based
Conditions: 10 μM ionomycin; for inhibition at 1 µM: test compound 1 μM, read-out: Inhibition Level 1 μM; for inhibition at 30 µM: test compound 30 μM, read-out: Inhibition Level 30 μM
Source text: Example 3: YFP Quenching Assay
1. Materials and Instruments
Ionomycin (Alomonelab cat. #I-700), FLUOstar Omega microplate reader (BMG Labtech, Ortenberg, Germany), and MARS Data Analysis Software (BMG Labtech)
Fisher rat thyroid (FRT) cells stably expressing human ANO6 (GenBank accession no. NP_001191732.1, provided by J. H. Nam, Dongguk University College of Medicine, Korea) and halide sensor mutant YFP-H148Q/I152L/F46L) were constructed and grown in Dulbecco's modified Eagle's medium Nutrient Mixture F-12 (DMEM/F-12) supplemented 10% FBS, 100 units/mL penicillin, 500 μg/mL hygromycin B and 100 μg/mL neomycin.
Fisher rat thyroid (FRT) cells stably expressing human ANO6 and halide sensor mutant YFP (H148Q/I152L/F46L) were seeded in black walled 96 well plates and incubated in a 37° C., 5% CO2 incubator to reach about 100% cell confluency. Then, each well of the 96 well plates were washed for several times with phosphate buffered saline (PBS), and 50 μL of PBS was added to each well. Test compounds (100× in DMSO) were added to each well to be 1% v/v DMSO. After incubation for 10 minutes in 40° C., the 96 well plates were transferred to a plate reader, and YFP fluorescence changed by SCN-introduced into cells through activated ANO6 were measured by the following steps.
(1) YFP fluorescence signals were recorded in every 0.4 seconds.
(2) Basal YFP fluorescence signals were recorded for 1 second.
(3) 140 mM SCN-(50 μL) containing 10 μM ionomycin was injected to each well, and YFP fluorescence signals were recorded.
The inhibitory activity (%) of each of the test compounds was obtained by the following steps.
(1) Background signals were subtracted from recording values, and the resulting values were converted to relative percentages. The values at 0 second were set to be 100%.
(2) Differences between the values at 3.6 seconds and those of at 7.6 seconds were calculated.
(3) In each row of 96 well plate, the inhibitory activity of each of the test compounds was calculated as percentages. The inhibitory activity of a negative control group to which neither compounds nor ionomycin were treated was set to be 100%, and the inhibitory activity of a positive control group to which ionomycin was treated and compounds were not treated was set to be 0%.
(4) The assay was performed in duplicate or triplicate, and the results were averaged.

inhibition at 1 µM [%] | inhibition at 30 µM [%] | SMILES
30 to 60 |  | O=C(NCCc1ccccc1)c1cccc(Nc2ncc(-c3cccc(F)c3)cn2)c1 [Compound A88]
30 to 60 | ≥ 60 | COc1cccc(CNC(=O)c2cccc(Nc3ccc(-c4ccc(F)cc4)nn3)c2)c1 [Compound A29]
< 30 |  | CN(C)CCNC(=O)c1cccc(Nc2ncc(-c3ccccc3)cn2)c1 [Compound 95, N-[2-(dimethylamino)ethyl]-3-[(5-phenylpyrimidin-2-yl)amino]benzamide]
≥ 60 |  | O=C(NCCCc1ccccc1)c1cccc(Nc2ncc(-c3ccccc3)cn2)c1 [Compound 55, N-(3-phenylpropyl)-3-[(5-phenylpyrimidin-2-yl)amino]benzamide]
< 30 |  | O=C(NCCN1CCCCC1)c1cccc(Nc2ncc(-c3ccccc3)cn2)c1 [Compound 93, 3-[(5-phenylpyrimidin-2-yl)amino]-N-[2-(piperidin-1-yl)ethyl]benzamide]
30 to 60 | ≥ 60 | O=C(NCc1cccnc1)c1cccc(Nc2ccc(-c3ccccc3)nn2)c1 [Compound 20, 3-[(6-phenylpyridazin-3-yl)amino]-N-[(pyridin-3-yl)methyl]benzamide]
30 to 60 | ≥ 60 | COc1cccc(C(C)NC(=O)c2cccc(Nc3ccc(-c4ccccc4)nn3)c2)c1 (stereo not drawn) [Compound A79]
30 to 60 | ≥ 60 | O=C(NCc1ccc2c(c1)OCO2)c1cccc(Nc2ccc(-c3ccc(F)cc3)nn2)c1 [Compound A17]
< 30 |  | Cc1ccc(CNC(=O)c2cccc(Nc3ccc(CCc4ccc(F)cc4)nn3)c2)o1 [Compound 77, 3-({6-[2-(4-fluorophenyl)ethyl]pyridazin-3-yl}amino)-N-[(5-methylfuran-2-yl)methyl]benzamide]
< 30 | ≥ 60 | O=C(NC1CCOCC1)c1cccc(Nc2ccc(-c3ccccc3)nn2)c1 [Compound 28, N-(oxan-4-yl)-3-[(6-phenylpyridazin-3-yl)amino]benzamide]
< 30 | ≥ 60 | O=C(NCC1COC1)c1cccc(Nc2ccc(-c3ccccc3)nn2)c1 [Compound 35, N-[(oxetan-3-yl)methyl]-3-[(6-phenylpyridazin-3-yl)amino]benzamide]
< 30 |  | Cc1ccc(CNC(=O)c2cccc(Nc3ccc(C4CCNCC4)nn3)c2)o1 [Compound 71, N-[(5-methylfuran-2-yl)methyl]-3-{[6-(piperidin-4-yl)pyridazin-3-yl]amino}benzamide]
< 30 |  | Cc1ccc(CNC(=O)c2cccc(Nc3nccc(-c4ccccc4)n3)c2)o1 [Compound 89, N-[(5-methylfuran-2-yl)methyl]-3-[(4-phenylpyrimidin-2-yl)amino]benzamide]
 | 30 to 60 | COc1ccccc1NC(=O)c1cccc(Nc2ccc(-c3ccccc3)nn2)c1 [Compound A71]
30 to 60 |  | CN(CCNC(=O)c1cccc(Nc2ccc(-c3ccccc3)nn2)c1)Cc1ccccc1 [Compound 124]
< 30 |  | Cc1ccc(CNC(=O)c2cccc(Nc3ccc(C4CCCC4)nn3)c2)o1 [Compound 62, 3-[(6-cyclopentylpyridazin-3-yl)amino]-N-[(5-methylfuran-2-yl)methyl]benzamide]
 | < 30 | Cc1ccc(CNC(=O)c2cccc(Nc3ccc(-c4ccc(Cl)c(Cl)c4)nn3)c2)o1 [Compound 16, 3-{[6-(3,4-dichlorophenyl)pyridazin-3-yl]amino}-N-[(5-methylfuran-2-yl)methyl]benzamide]

inhibition at 1 µM [%] | inhibition at 30 µM [%] | SMILES
 | < 30 | Cc1ccc(CNC(=O)c2ccc(Nc3ccc(-c4ccccc4)nn3)cc2)o1 [Compound 22, N-[(5-methylfuran-2-yl)methyl]-4-[(6-phenylpyridazin-3-yl)amino]benzamide]
30 to 60 |  | Cc1ccc(CNC(=O)c2cccc(Nc3ncc(-c4cccc(C(F)(F)F)c4)cn3)c2)o1 [Compound 99, N-[(5-methylfuran-2-yl)methyl]-3-({5-[3-(trifluoromethyl)phenyl]pyrimidin-2-yl}amino)benzamide]
< 30 |  | CCc1ccc(Nc2cccc(C(=O)NCc3ccc(C)o3)c2)nn1 [Compound 84, 3-[(6-ethylpyridazin-3-yl)amino]-N-[(5-methylfuran-2-yl)methyl]benzamide]
< 30 |  | Cc1ccc(CNC(=O)c2cccc(Nc3ccc(CC(C)C)nn3)c2)o1 [Compound 61, N-[(5-methylfuran-2-yl)methyl]-3-{[6-(2-methylpropyl)pyridazin-3-yl]amino}benzamide]
30 to 60 |  | O=C(NC1CCCc2ccccc21)c1cccc(Nc2ncc(-c3cccc(F)c3)cn2)c1 (stereo not drawn) [Compound A82]
< 30 |  | O=C(NCCN1CCCCC1)c1cccc(Nc2ccc(-c3ccccc3)nn2)c1 [Compound A90]
< 30 |  | O=C(NCCN1CCCC1)c1cccc(Nc2ncc(-c3ccccc3)cn2)c1 [Compound 94, 3-[(5-phenylpyrimidin-2-yl)amino]-N-[2-(pyrrolidin-1-yl)ethyl]benzamide]
< 30 |  | CCN(CC)CCNC(=O)c1cccc(Nc2ncc(-c3ccccc3)cn2)c1 [Compound 96, N-[2-(diethylamino)ethyl]-3-[(5-phenylpyrimidin-2-yl)amino]benzamide]
30 to 60 |  | COc1ccc(CCNC(=O)c2cccc(Nc3ncc(-c4ccccc4)cn3)c2)cc1 [Compound 83, N-[2-(4-methoxyphenyl)ethyl]-3-[(5-phenylpyrimidin-2-yl)amino]benzamide]
< 30 |  | Cc1ccc(CNC(=O)c2cccc(Nc3ncc(-c4ccc(C(=O)O)cc4)cn3)c2)o1 [Compound 109, 4-{2-[(3-{[(5-methylfuran-2-yl)methyl]carbamoyl}phenyl)amino]pyrimidin-5-yl}benzoic acid]
< 30 |  | CN1CCN(CCNC(=O)c2cccc(Nc3ncc(-c4ccccc4)cn3)c2)CC1 [Compound 97, N-[2-(4-methylpiperazin-1-yl)ethyl]-3-[(5-phenylpyrimidin-2-yl)amino]benzamide]
30 to 60 | 30 to 60 | Cc1ccc(CNC(=O)c2cccc(Nc3ncc(-c4ccccc4)nn3)c2)o1 [Compound 12, N-[(5-methylfuran-2-yl)methyl]-3-[(6-phenyl-1,2,4-triazin-3-yl)amino]benzamide]
30 to 60 | ≥ 60 | Cc1ccc(CNC(=O)c2cccc(Nc3cnc(-c4ccccc4)nc3)c2)o1 [Compound 11, N-[(5-methylfuran-2-yl)methyl]-3-[(2-phenylpyrimidin-5-yl)amino]benzamide]
< 30 | ≥ 60 | Cc1ccc(-c2ccc(Nc3cccc(C(=O)NCc4ccc(C)o4)c3)nn2)cc1 [Compound A7]
< 30 |  | Cc1ccc(CNC(=O)c2cccc(Nc3nnccc3C)c2)o1 [Compound 48, N-[(5-methylfuran-2-yl)methyl]-3-[(4-methylpyridazin-3-yl)amino]benzamide]
 | < 30 | Cc1cnnc(Nc2cccc(C(=O)NCc3ccc(C)o3)c2)c1 [Compound 42, N-[(5-methylfuran-2-yl)methyl]-3-[(5-methylpyridazin-3-yl)amino]benzamide]
